Assay results reported in patent publication US20030207830A1, “Mutant NDP kinases for antiviral nucleotide analog activation and therapeutic uses thereof” (priority 2002, published 2003).
Each block holds one molecule with its values, some of them ahead of it.

Tests used:
[1] = system: human pancreatic adenocarcinoma cell lines; settings: 4-fold overexpression of mitochondrial deoxyguanosine kinase; cited from earlier work
[2] = biological target: T1, Dictyostelium discoideum NDP kinase (Dd-NDPK) variant N119S, SEQ ID NO: 1 (Dictyostelium discoideum, UniProt P22887, N119S); test: Pre-steady-state phosphotransfer, fluorescence stopped-flow; format: biochemical; settings: catalytic efficiency of phosphotransfer, N119S, pre-steady state
T1 construct: made in house
T1 sequence (P22887 whole entry N119S): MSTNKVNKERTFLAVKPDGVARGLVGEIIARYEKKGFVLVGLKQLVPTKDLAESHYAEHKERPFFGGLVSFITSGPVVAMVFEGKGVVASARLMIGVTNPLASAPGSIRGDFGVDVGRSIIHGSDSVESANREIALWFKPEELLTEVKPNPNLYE
Experimental: (§1) (A) Kinetics of reaction of phosphorylated Dictyostelium wild type and N119S NDP kinases by 100 μM Acyclovir diphosphate (Acy-DP). The phosphorylated enzyme was prepared with a stoichiometry #1 as described (Deville-Bonne 1996). The kinases were preincubated with ATP in excess in buffer T (50 mM Tris-HCl, pH 7.5, 5 mM MgCl2 and 75 mM KCl). The increase in fluorescence upon mixing the phospho-enzyme (1 μM, final concentration) with Acy-DP in buffer T at 20° C. was monitored with a stopped-flow. The solid lines represent the best fit of each curve to a monoexponential.
(§2) (B) Concentration dependence of the rate constant on Acy-DP concentation. The pseudo-first order rate constant for the reaction (kobs) was plotted against Acy-DP.
(§3) All numbers in italics have already been published (Schneider, 1998, 2000) The kinetic constants were measured at the pre-steady-state level using a fluorescence stopped-flow device. The binding constants were determined at equilibrium by recording the increase in fluorescence (Schneider, 2000). Values are the average of three independent determinations.
(§4) Wild type human NDPK-A and the mutants were expressed and purified according to Schneider et al., 2000, Mol Pharm. Recombinant wild type and mutant Dd-NDPK were obtained as described (Schneid, 1998a), except for N119Y NDP kinase which was partially purified by Q sepharose FF chromatography. Each protein was characterized by […] electrophoresis. The concentration of 17 kDa subunits of the enzyme was either determined by Bradford assay ([…]) or using an absorbance coefficient of ΔA^280=1.249 for a 1 mg/mL solution of human wild type and N115S NDPK-A, and =0.55 for wild type and mutant N119S, N119T Dd-NDP kinases, respectively.
(§5) As the diphosphate form of analogs were not always available, the triphosphate analogs were used to study phosphate transfer in reaction as in Scheme I. Experiments were performed with an Hi-Tech DX2 microvolume stopped-flow reaction (Schneider, 1998) at Aexc=296 nm (for Ado derivatives) or […] (for other nucleotides), 2 mm excitation slit and a 320 nm cutoff filter at the emission. After mixing NDPK (1 μM) and NTP or an analogTP (10-500 μM), the intrinsic protein fluorescence was recorded for 10-200 sec. In each experiment, 400 pairs of data were recorded, and the data from 3-4 identical experiments were averaged and fitted to a number of non-linear analytical equations using the software provided by Hi-Tech. All curves fitted to single exponentials.
(§6) The data were analyzed using the reaction scheme: [drawing 1]
(§7) In both the forward and the reverse reactions, the product concentration remains very low, thus the product binding can be neglected, and the observed single step could be attributed to the phosphotransfer (Schneider, 1998). The rate of this observed single step is: [formula]
(§8) and reaches a limiting value (k+2) at NTP saturation. Saturation could not be obtained with the concentrations of any NTP used here. Therefore, catalytic efficiencies of phosphorylation (CEphos=k+2/(k−1/k+1)=k+2/KS) were measured, which are equivalent to second order constants and allow a reliable comparison of a variety of NDP kinase substrates.

[3] = biological target: T2, Dictyostelium discoideum NDP kinase (Dd-NDPK), wild type (Dictyostelium discoideum, UniProt P22887); test: as above; format: biochemical; settings: catalytic efficiency of phosphotransfer, wt
T2 construct: made in house
T2 sequence (P22887 whole entry): as the sequence (P22887 whole entry N119S) above, with S119N counted along it
Experimental: as §1, §2, §3, §4, §5, §6, §7, §8

[4] = biological target: T3, Dictyostelium NDP Kinase N119S (Dictyostelium discoideum, UniProt P22887, N119S); test: Pre-steady-state fluorescence stopped-flow phosphotransfer from nucleoside triphosphates, N119S Dd-NDPK; format: biochemical; settings: pre-steady state, stopped-flow; average of three determinations
T3 construct: made in house
T3 sequence (P22887 whole entry N119S): as the sequence (P22887 whole entry N119S) above
Experimental: as §3, §5, §6, §7, §8

[5] = biological target: T4, Dictyostelium discoideum NDP kinase inactive variant EI-N119S (H122G-F64W-N119S) (Dictyostelium discoideum, UniProt P22887, F64W/H122G/N119S); test: biochemical; format: binding
T4 construct: made in house
T4 sequence (P22887 whole entry F64W/N119S/H122G): as the sequence (P22887 whole entry N119S) above, with F64W, H122G counted along it
Experimental: (§9) The binding constants were determined at equilibrium by recording the increase in fluorescence (Schneider, 2000).
(§10) Analog binding affinity was measured using a variant of Dd-NDPK (EI) as described (Schneider, 2000). […] The mutation N119S was inserted in EI in order to measure the nucleotide affinity by fluorescence titration.
(§11) Altered bases as compared to the wild type sequence are underlined in bold. Sequences were checked by automatic sequencing. The mutant EI-N119S was obtained by mutation of the previously described F64W-H122G mutated NDP kinase (here called EI) (Schneider 2000).

[6] = biological target: T5, Dictyostelium discoideum NDP kinase inactive variant EI (H122G-F64W) (Dictyostelium discoideum, UniProt P22887, F64W/H122G); test: biochemical; format: binding
T5 construct: made in house
T5 sequence (P22887 whole entry F64W/H122G): as the sequence (P22887 whole entry N119S) above, with F64W, S119N, H122G counted along it
Experimental: as §9, §10, §11

[7] = biological target: T6, Dictyostelium NDP Kinase wt (Dictyostelium discoideum, UniProt P22887); test: Pre-steady-state fluorescence stopped-flow phosphotransfer from nucleoside triphosphates, wild type Dd-NDPK; format: biochemical; settings: average of three determinations
T6 construct: made in house
T6 sequence (P22887 whole entry): as the sequence (P22887 whole entry N119S) above, with S119N counted along it
Experimental: as §9
After mixing NDPK (1 μM) and NTP or an analogTP (10-500 μM), the intrinsic protein fluorescence was recorded for 10-200 sec. In each experiment, 400 pairs of data were recorded, and the data from 3-4 identical experiments were averaged and fitted to a number of non-linear analytical equations using the software provided by Hi-Tech.
as §6
The rate of this observed single step is: [formula]
(§12) and reaches a limiting value (k+2) at NTP saturation. […] Therefore, catalytic efficiencies of phosphorylation (CEphos=k+2/(k−1/k+1)=k+2/KS) were measured, which are equivalent to second order constants and allow a reliable comparison of a variety of NDP kinase substrates.

[8] = biological target: T7, Inactive-N119S Dd-NDPK (EI-N119S) (Dictyostelium discoideum, UniProt P22887, F64W/H122G/N119S); test: Equilibrium fluorescence titration of nucleotide binding, inactive Dd-NDPK variant with N119S; settings: relative affinity of NTP for both enzymes
T7 construct: made in house
T7 sequence (P22887 whole entry F64W/N119S/H122G): as the sequence (P22887 whole entry N119S) above, with F64W, H122G counted along it
Experimental: as §3
In contrast to what is observed with natural nucleotides, the Ser mutation specifically improves the catalytic efficiency with nucleotides analogs as shown in Table I; ddGTPs and AZT-TP react, respectively, 1.5 and 4 times faster with the N119S enzyme. […] Analog binding affinity was measured using a variant of Dd-NDPK (EI) as described (Schneider, 2000). This mutant (H122G-F64W) lacks the catalytic histidine, and a tryptophan replaces the phenylalanine stacking on the base in the active site (Schneider, 2000). The mutation N119S was inserted in EI in order to measure the nucleotide affinity by fluorescence titration. The Ser contribution to the binding was evaluated from the relative affinity of NTP for both enzymes (Table I).
as §11, with “for N119S, N119T and N119Y mutations, respectively. Altered” for “Altered”

[9] = biological target: T8, human NDP kinase A (NDPK-A) variant L55H (Homo sapiens, UniProt P15531, L55H); test: Pre-steady-state phosphotransfer, fluorescence stopped-flow; format: biochemical; settings: L55H, pre-steady state
T8 construct: made in house; host or cells: E. coli
T8 sequence (P15531 whole entry L55H): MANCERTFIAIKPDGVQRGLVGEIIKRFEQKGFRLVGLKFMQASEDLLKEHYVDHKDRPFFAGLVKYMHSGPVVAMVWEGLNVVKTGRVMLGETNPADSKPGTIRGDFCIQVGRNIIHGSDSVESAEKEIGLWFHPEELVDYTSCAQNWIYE
Experimental: (§13) FIG. 3 depicts the catalytic efficiency of NDPK-A and mutants for nucleoside analogs. The rates of phosphorylation of pure recombinant NDP kinases (1 μM) were measured at the pre-steady state in a fluorescence stopped-flow with d4T-TP (10 to 80 μM). The catalytic efficiency (expressed in M^−1s^−1) was determined from the variation of the rate as a function of analog as shown in FIG. 2 (▾, NDPK-A, ♦ L55H, ● N115S, ▪ L55H-N115S).
(§14) The activity assays were performed at the pre-steady state level.
(§15) R, the specificity change, is the ratio of the catalytic efficiencies (for analog versus natural nucleotide) of the mutant compared to the wild type enzyme.
as §4
as §5, with “Hi-Tech.” for “Hi-Tech. All curves fitted to single exponentials.”
as §6, §7, §12

[10] = biological target: T9, human NDP kinase A (NDPK-A) variant L55H-N115S, SEQ ID NO: 3 (Homo sapiens, UniProt P15531, L55H/N115S); test: as above; format: biochemical; settings: L55H-N115S, pre-steady state
T9 construct: made in house; host or cells: E. coli
T9 sequence (P15531 whole entry L55H/N115S): as the sequence (P15531 whole entry L55H) above, with N115S counted along it
Experimental: as §13, §14, §15, §4
as §5, with “Hi-Tech.” for “Hi-Tech. All curves fitted to single exponentials.”
as §6, §7, §12

[11] = biological target: T10, human NDP kinase A (NDPK-A) variant N115S, SEQ ID NO: 2 (Homo sapiens, UniProt P15531, N115S); test: as above; format: biochemical; settings: N115S, pre-steady state
T10 construct: made in house; host or cells: E. coli
T10 sequence (P15531 whole entry N115S): as the sequence (P15531 whole entry L55H) above, with H55L, N115S counted along it
Experimental: as §13, §14, §15, §4
as §5, with “Hi-Tech.” for “Hi-Tech. All curves fitted to single exponentials.”
as §6, §7, §12

[12] = biological target: T11, human NDP kinase A (NDPK-A, nm23-H1), wild type (Homo sapiens, UniProt P15531); test: as above; format: biochemical; settings: catalytic efficiency of phosphotransfer, NDPK-A, pre-steady state
T11 construct: made in house
T11 sequence (P15531 whole entry): as the sequence (P15531 whole entry L55H) above, with H55L counted along it
Experimental: as §13, §14, §4
as §5, with “Hi-Tech.” for “Hi-Tech. All curves fitted to single exponentials.”
as §6, §7, §12

[13] = Dd-NDPK mutant; cited from earlier work
[14] = Reactivity of Dd-NDPK Asn 119 mutants for nucleotide analogs; format: biochemical; settings: Dd-NDPK mutant versus wild type
From the text: First, by site-directed mutagenesis, a limited set of amino acid substitutions (Ser, Thr, or Tyr) at the position of Asn 119 were introduced into the active site of Dd-NDPK. The three mutant proteins were expressed and purified to homogeneity, except N119Y, which was found unstable and poorly active (0.05% of wild type activity).

[15] = catalytic efficiency of phosphotransfer

Molecule: Nc1nc(Cl)nc2c1ncn2[C@H]1C[C@H](O)[C@@H](CO)O1 [CdA]
sensitivity of cells [1]: enhanced sensitivity

Molecule: Nc1nc2c(ncn2[C@@H]2O[C@H](COP(=O)(O)OP(=O)(O)OP(=O)(O)O)[C@@H](O)[C@H]2O)c(=O)[nH]1 [GTP]
k2/Ks [2]: 700000 M⁻¹ s⁻¹
k2/Ks [3]: 8e+06 M⁻¹ s⁻¹
k2/Ks N119S (catalytic efficiency of phosphotransfer) [4]: 700000 M⁻¹ s⁻¹
Kd [5]: 1100 nM
Kd [6]: 150 nM
k2/Ks wt (catalytic efficiency of phosphotransfer) [7]: 8e+06 M⁻¹ s⁻¹

Molecule: Nc1nc2c(ncn2COCCOP(=O)(O)OP(=O)(O)OP(=O)(O)O)c(=O)[nH]1 [acyclovirTP, acyclovir-TP]
k2/Ks N119S (catalytic efficiency of phosphotransfer) [4]: 1650 M⁻¹ s⁻¹
factor by which Ser 119 reinforces affinity (EI-N119S versus EI) [8]: 10 fold

Molecule: Nc1nc2c(ncn2[C@@H]2O[C@H](CO)[C@@H](O)[C@@H]2O)c(=O)[nH]1 [araG]
sensitivity of cells [1]: enhanced sensitivity

Molecule: Nc1nc2c(ncn2[C@@H]2O[C@H](CO)[C@@H](O)C2(F)F)c(=O)[nH]1 [dFdG]
sensitivity of cells [1]: enhanced sensitivity

Molecule: Cc1cn([C@H]2C[C@H](O)[C@@H](COP(=O)(O)OP(=O)(O)OP(=O)(O)O)O2)c(=O)[nH]c1=O [dTTP]
k2/Ks [2]: 430000 M⁻¹ s⁻¹
k2/Ks [3]: 5.7e+06 M⁻¹ s⁻¹
k2/Ks N119S (catalytic efficiency of phosphotransfer) [4]: 430000 M⁻¹ s⁻¹
factor of rate versus wild type NDPK-A [9]: 1.8
k2/Ks [9, 15]: 2e+06 M⁻¹ s⁻¹
factor of rate versus wild type NDPK-A [10]: 0.33
k2/Ks [10, 15]: 450000 M⁻¹ s⁻¹
factor of rate versus wild type NDPK-A [11]: 0.08
k2/Ks [11, 15]: 100000 M⁻¹ s⁻¹
Kd [5]: 5200 nM
Kd [6]: 1200 nM
k2/Ks wt (catalytic efficiency of phosphotransfer) [7]: 5.7e+06 M⁻¹ s⁻¹
k2/Ks [12]: 1.2e+06 M⁻¹ s⁻¹

B1: K16A: Dd-NDPK with Lys 16 mutated into Ala (Schneider 2001) (protein, UniProt P22887 1-155, looked up, variant K16A)
Nucleoside diphosphate …: MSTNKVNKERTFLAVAPDGVARGLVGEIIARYEKKGFVLVGLKQLVPTKDLAESHYAEHKERPFFGGLVSFITSGPVVAMVFEGKGVVASARLMIGVTNPLASAPGSIRGDFGVDVGRNIIHGSDSVESANREIALWFKPEELLTEVKPNPNLYE
factor of decrease of catalytic constant of phosphotransfer [13]: 100

B2: N119A: Dd-NDPK with Asn 119 mutated into Ala (Schneider 2001) (protein, UniProt P22887 1-155, looked up, variant N119A)
Nucleoside diphosphate …: MSTNKVNKERTFLAVKPDGVARGLVGEIIARYEKKGFVLVGLKQLVPTKDLAESHYAEHKERPFFGGLVSFITSGPVVAMVFEGKGVVASARLMIGVTNPLASAPGSIRGDFGVDVGRAIIHGSDSVESANREIALWFKPEELLTEVKPNPNLYE
effect of mutation on kinetic parameters of the enzyme [13]: did not affect significantly

enzyme reactivity for analogs [14]: without effect
B3: N119T: Dd-NDPK with Thr at the position of Asn 119 (protein, UniProt P22887 1-155, looked up, variant N119T)
Nucleoside diphosphate …: MSTNKVNKERTFLAVKPDGVARGLVGEIIARYEKKGFVLVGLKQLVPTKDLAESHYAEHKERPFFGGLVSFITSGPVVAMVFEGKGVVASARLMIGVTNPLASAPGSIRGDFGVDVGRTIIHGSDSVESANREIALWFKPEELLTEVKPNPNLYE
